Source: patent US12102617B2, “Antimicrobial compositions containing a synergistic combination of activated creatinine and an imidazole antifungal agent” (Board of Regents of the University of Nebraska, priority 2016, dated 2024)
≈ marks a conversion by molar mass, not a printed value. Structures can show the parent of a compound that is named as a salt. Where two headings read alike, the source gives them in different places.

Columns and labels:
Penicillium spp. 2 = assay: Comparative antifungal testing on LB agar plate wells, mold fungi (Example 4); format: cell-based; details: 0.1% (w/v) solutions in wells of LB agar plate, after 48 hours
Experimental: (§1) Two species of penicillium, Penicillium spp. 1 and Penicillium spp. 2, were isolated from contaminates that grew on laboratory plates and were grown in LB broth, shaking for three days. One hundred microliters of the fungal broth were added to an LB agar plate and evenly spread on the surface. Test samples containing the following aqueous solutions were prepared: • 0.1% (w/v) clotrimazole (3.4 mM); • 0.1% (w/v) clotrimazole in 200 mM creatinine ethyl ester hydrochloride (“CEE”) (3.4 mM in clotrimazole; 1.7 mol % clotrimazole in the clotrimazole-creatinine mixture); • 0.1% (w/v) ketoconazole (5.3 mM); • 0.1% (w/v) fluconazole (30 mM). […] (2009) Biochem. Biophys. Res. Comm. 388(2):252-255.

Penicillium spp. 1 = assay: as above; format: cell-based; details: 0.1% (w/v) solutions in wells of LB agar plate, after 48 hours
Experimental: as §1

[1] = test system: Candida albicans yeast (ATCC1023); assay: Antifungal MIC evaluation (Example 3); format: cell-based; details: C. albicans yeast, single agent alone, 24 hours at 37° C.
Experimental: (§2) The MIC for each solution was determined against the fungi after incubation for 24 hours at 37° C. using two-fold dilutions and flat-bottom 96-well plates.

[2] = test system: Saccharomyces spp. yeast (baker's yeast); assay: Antifungal MIC evaluation (Example 3); format: cell-based; details: single agent alone, 24 hours at 37° C.
Experimental: as §2

[3] = test system: Staphylococcus aureus (Gram positive; laboratory strain 29213); assay: MIC determination, two-fold dilutions in 96-well plates (Example 2); format: cell-based; details: for antibacterial efficacy against S. aureas (Example 2, FIG. 2): comparative photographs; for MIC: S. aureus, single agent alone, 24 hours at 37° C.
Experimental: (§3) The antibacterial activity of the clotrimazole/activated creatinine solutions prepared as described in Example 1 was evaluated with respect to Staphylococcus aureus (Gram positive; laboratory strain 29213), E. coli (Gram negative; laboratory strain 35150), and a multiple drug resistant strain of Enterococcus faecalis (Gram positive). The S. aureus and E. coli were purchased from the American Type Culture Collection, and the E. faecalis was a local veterinary clinic isolate. The minimum inhibitory concentration (“MIC”) for each solution was determined against each of the three bacteria after incubation for 24 hours at 37° C. using two-fold dilutions and flat-bottom 96-well plates.

[4] = test system: multiple drug resistant strain of Enterococcus faecalis (Gram positive); assay: as above; format: cell-based; details: E. faecalis (multiple drug resistant), single agent alone, 24 hours at 37° C.
Experimental: as §3

[5] = test system: E. coli (Gram negative; laboratory strain 35150); assay: microbe, parasite or virus in culture; format: cell-based; details: single agent alone, 24 hours at 37° C.
Experimental: as §3

[6] = test system: gram negative and gram positive bacteria; details: both gram negative and gram positive bacteria, including antibiotic resistant organisms; cited from earlier work

OC(Cn1cncn1)(Cn1cncn1)c1ccc(F)cc1F [fluconazole]
inhibition of fungal growth (Penicillium spp. 2): do not | inhibition of fungal growth (Penicillium spp. 1): do not

CN1CC(=O)N=C1N [activated creatinine, creatinine hydrochloride]
MIC [1]: no impact on fungal growth | MIC [2]: no impact on fungal growth | antibacterial efficacy against S. aureas (Example 2, FIG. 2) [3]: ineffective | MIC ([3]; Staphylococcus aureus, read-out: MIC): 10.9 mg/mL | MIC ([4]; Enterococcus faecalis, read-out: MIC): 21.8 mg/mL | MIC ([5]; Escherichia coli, read-out: MIC): 21.9 mg/mL | inhibitory activity against bacteria [6]: broad spectrum inhibitory activity

CC(=O)N1CCN(c2ccc(OCC3COC(Cn4ccnc4)(c4ccc(Cl)cc4Cl)O3)cc2)CC1 (stereo not drawn) [ketoconazole]
inhibition of fungal growth (Penicillium spp. 2): do not | inhibition of fungal growth (Penicillium spp. 1): do not

Clc1ccccc1C(c1ccccc1)(c1ccccc1)n1ccnc1 [Clotrimazole, clotrimazole]
inhibition of fungal growth (Penicillium spp. 2): does not exhibit antifungal activity | inhibition of fungal growth (Penicillium spp. 2; listed as CLO): do not | inhibition of fungal growth (Penicillium spp. 1): does not exhibit antifungal activity | inhibition of fungal growth (Penicillium spp. 1; listed as CLO): do not | MIC ([1]; Candida albicans, ATCC1023, read-out: MIC): 6 mg/mL (≈ 17.4 mM) | MIC ([2]; read-out: MIC): 7.5 mg/mL (≈ 21.7 mM) | antibacterial efficacy against S. aureas (Example 2, FIG. 2) [3]: ineffective | MIC [3]: no impact on bacterial growth | MIC [4]: no impact on bacterial growth | MIC [5]: no impact on bacterial growth
